According to patent publication US4503044A, “Antibiotic LL-D05139 β” (American Cyanamid Company, priority 1983, dated 1985):
Converted amounts (≈) assume the structure as drawn. Like-named read-outs stand apart in the source and are kept apart here.

Experiments:
[1] = system: human lung carcinoma (LX-1); assay: Human tumor clonogenic assay, lung carcinoma; assay type: cell-based; conditions: for T/C / Av. No. of Colonies/Culture: Lung Carcinoma; for T/C: active if T/C ≤30%; for Av. No. of Colonies/Culture: colonies counted after 10-11 days, control 590
Experimental: (§1) This test was performed essentially by the method of A. Hamburger and S. Salmon, Primary bioassay of humor tumor stem cells., Science, 197: 461-463 (1977). Human colon carcinoma (CX-1) and human lung carcinoma (LX-1) tumors were obtained from the National Cancer Institute and propagated in athymic Balb/c mice. Freshly removed tumors were dispersed with trypsin 0.25% and 5×10^4 lung carcinoma cells or 1×10^5 colon carcinoma cells in soft (0.3%) agarose medium containing 0.1 ml of test drug were plated onto a solidified (0.5%) agarose base medium in 35 mm grided dishes. Cultures were incubated at 37° C. in a humidified 5% carbon dioxide in air atmosphere. Colonies were counted after 10-11 days. A compound is considered active if the treated/control (T/C) value is ≤30%, representing a 70% cell kill.

[2] = Stability in solution as a function of pH; assay type: physicochemical
[3] = system: lymphocytic leukemia P388; assay: Lymphocytic Leukemia P388 Test; assay type: in vivo; conditions: DBA/2 mice, efficacy criterion ≥125%
Experimental: The animals used were DBA/2 mice, all of one sex, weighing a minimum of 17 g and all within a 3 g weight range. There were three animals per test group. The tumor transplant was by intraperitoneal injection of 0.1 ml of dilute ascitic fluid containing 10^6 cells of lymphocytic leukemia P388. LL-D05139β was administered intraperitoneally on days 1, 5 and 9 (relative to tumor inoculation) at various doses. The animals were weighed and survivors recorded on a regular basis for 30 days. The ratio of survival time for treated (T)/control (C) animals was calculated. The positive control compound was 5-fluorouracil, given as a 60 mg/kg injection. The criterion for efficacy is T/C×100≥125%.

[4] = system: Pasteurella multocida; assay: In vitro antibacterial activity, agar dilution; assay type: cell-based; conditions: Pasteurella multocida LL #117; Mueller-Hinton agar, 18 hours, 35° C.; read-out: Minimal Inhibitory Concentration
Experimental: (§2) This antibacterial agent is active in vitro against gram-positive and gram-negative bacteria when tested by the standard agar dilution procedure with Mueller-Hinton agar, and an inoculum of each test organism of approximately 10^4 colony-forming units delivered by a Steers replicating device. The minimal inhibitory concentration (mcg/ml) was defined as the lowest concentration of antibiotic LL-D05139β that inhibited visible growth after 18 hours incubation at 35° C.

[5] = system: Serratia marcescens; assay: In vitro antibacterial activity, agar dilution; assay type: cell-based; conditions: Serratia marcescens QHC-77-2; Mueller-Hinton agar, 18 hours, 35° C.; read-out: Minimal Inhibitory Concentration
Experimental: as §2

[6] = system: Bacillus subtilis; assay: In vitro antibacterial activity, agar dilution; assay type: cell-based; conditions: ATCC6633; Bacillus subtilis ATCC 6633; Mueller-Hinton agar, 18 hours, 35° C.; read-out: Minimal Inhibitory Concentration
Experimental: as §2

[7] = system: Pseudomonas aeruginosa; assay: In vitro antibacterial activity, agar dilution; assay type: cell-based; conditions: 35° C., read-out: Minimal Inhibitory Concentration
Experimental: as §2

[8] = system: Serratia sp.; assay: In vitro antibacterial activity, agar dilution; assay type: cell-based; conditions: Serratia sp. TU1-78-15; Mueller-Hinton agar, 18 hours, 35° C.; read-out: Minimal Inhibitory Concentration
Experimental: as §2

[9] = system: Micrococcus luteus; assay: In vitro antibacterial activity, agar dilution; assay type: cell-based; conditions: Micrococcus luteus PCI-1001; Mueller-Hinton agar, 18 hours, 35° C.; read-out: Minimal Inhibitory Concentration
Experimental: as §2

[10] = system: Klebsiella pneumoniae; assay: In vitro antibacterial activity, agar dilution; assay type: cell-based; conditions: 18 h, 35° C., read-out: Minimal Inhibitory Concentration
Experimental: as §2

[11] = system: Candida albicans; assay: In vitro antibacterial activity, agar dilution; assay type: cell-based; conditions: 18 h, 35° C., read-out: Minimal Inhibitory Concentration
Experimental: as §2

[12] = system: Escherichia coli; assay: In vitro antibacterial activity, agar dilution; assay type: cell-based; conditions: 35° C., read-out: Minimal Inhibitory Concentration
Experimental: as §2

[13] = system: Staphylococcus aureus; assay: In vitro antibacterial activity, agar dilution; assay type: cell-based; conditions: Mueller-Hinton agar, 18 hours, 35° C.; for MIC: read-out: Minimal Inhibitory Concentration
Experimental: as §2

[14] = system: Salmonella sp.; assay: In vitro antibacterial activity, agar dilution; assay type: cell-based; conditions: Salmonella sp. QHC-77-3; Mueller-Hinton agar, 18 hours, 35° C.; read-out: Minimal Inhibitory Concentration
Experimental: as §2

[15] = system: Enterobacter aerogenes; assay: In vitro antibacterial activity, agar dilution; assay type: cell-based; conditions: Klebsiella aerogenes; Enterobacter aerogenes Stfd-79-14; Mueller-Hinton agar, 18 hours, 35° C.; read-out: Minimal Inhibitory Concentration
Experimental: as §2

[16] = system: Providencia stuarti; assay: In vitro antibacterial activity, agar dilution; assay type: cell-based; conditions: Mueller-Hinton agar, 18 hours, 35° C.
Experimental: as §2

[17] = system: Enterobacter cloacae; assay: In vitro antibacterial activity, agar dilution; assay type: cell-based; conditions: Enterobacter cloacae K-79-16; Mueller-Hinton agar, 18 hours, 35° C.; read-out: Minimal Inhibitory Concentration
Experimental: as §2

[18] = system: Enterococcus sp.; assay: In vitro antibacterial activity, agar dilution; assay type: cell-based; conditions: Mueller-Hinton agar, 18 hours, 35° C.
Experimental: as §2

[19] = system: Proteus morganii; assay: In vitro antibacterial activity, agar dilution; assay type: cell-based; conditions: Morganella morganii; Proteus morganii K-79-25; Mueller-Hinton agar, 18 hours, 35° C.; read-out: Minimal Inhibitory Concentration
Experimental: as §2

[20] = system: Acinetobacter calcoaceticus; assay: In vitro antibacterial activity, agar dilution; assay type: cell-based; conditions: 18 h, 35° C., read-out: Minimal Inhibitory Concentration
Experimental: as §2

[21] = system: Proteus rettgeri; assay: In vitro antibacterial activity, agar dilution; assay type: cell-based; conditions: Providencia rettgeri; Proteus rettgeri N-76-1; Mueller-Hinton agar, 18 hours, 35° C.; read-out: Minimal Inhibitory Concentration
Experimental: as §2

[22] = system: human colon carcinoma (CX-1); assay: Human tumor clonogenic assay, colon carcinoma; assay type: cell-based
Experimental: as §1

Q: For `C[C@H](N)C(=O)N[C@@H](COC(=O)C=[N+]=[N-])C(=O)O` [LL-D05139β, N-L-alanyl-L-serine diazoacetate], which T/C ([1]; concentration 2 mgc/ml) is on record?
A: Its T/C is 23.2%.

Q: What about the “Av. No. of Colonies/Culture” value ([1]; concentration 2 mgc/ml) of the same molecule?
A: The value was 137.

Q: And the T/C ([1]; concentration 20 mgc/ml)?
A: Its T/C is 17.8%.

Q: And the “Av. No. of Colonies/Culture” value ([1]; concentration 20 mgc/ml)?
A: Its value is 105.

Q: What about the T/C ([1]; concentration 200 mgc/ml) of the same molecule?
A: The T/C was 13.0%.

Q: What about the “Av. No. of Colonies/Culture” value ([1]; concentration 200 mgc/ml) of the same molecule?
A: Its value is 78.

Q: And the “activity in human tumor clonogenic (stem cell) assay” value ([1]; human lung (LX-1) carcinoma, at 2.0 mcg/ml and higher doses)?
A: The value was “active”.

Q: What about the stability in acid ([2]; acid, solutions kept between pH 7 and pH 9.5 during isolation) of the same molecule?
A: Its stability in acid is “poor stability”.

Q: What about the stability ([2]; below pH 5.0) of the same molecule?
A: Its stability is “Decomposes rapidly”.

Q: And the stability ([2]; weakly basic solutions)?
A: The stability was “stable”.

Q: What about the “T/C × 100 (survival time treated/control)” value ([3]; 25 mg/kg intraperitoneally on days 1, 5 and 9) of the same molecule?
A: Its value is 140%.

Q: What about the “T/C × 100 (survival time treated/control)” value ([3]; 50 mg/kg intraperitoneally on days 1, 5 and 9) of the same molecule?
A: The value was 150%.

Q: What about the “T/C × 100 (survival time treated/control)” value ([3]; 200 mg/kg intraperitoneally on days 1, 5 and 9) of the same molecule?
A: The value was 140%.

Q: What about the MIC [4] of the same molecule?
A: Its MIC is 64 µg/mL (≈ 262 µM).

Q: What about the MIC [5] of the same molecule?
A: The MIC was 32 µg/mL (≈ 131 µM).

Q: What about the MIC [6] of the same molecule?
A: The MIC was 16 µg/mL (≈ 65.5 µM).

Q: And the MIC ([7]; 18 h, Pseudomonas aeruginosa 12-4-4, Mueller-Hinton agar)?
A: Its MIC is 128 µg/mL (≈ 524 µM).

Q: What about the MIC ([7]; 18 h, Pseudomonas aeruginosa SSC-78-13, Mueller-Hinton agar) of the same molecule?
A: Its MIC is 512 µg/mL (≈ 2100 µM).

Q: And the MIC ([7]; ATCC27853, 18 h, Pseudomonas aeruginosa ATCC 27853, Mueller-Hinton agar)?
A: Its MIC is 128 µg/mL (≈ 524 µM).

Q: What about the MIC [8] of the same molecule?
A: The MIC was 64 µg/mL (≈ 262 µM).

Q: What about the MIC [9] of the same molecule?
A: The MIC was 4 µg/mL (≈ 16.4 µM).

Q: What about the MIC ([10]; Klebsiella pneumoniae AD, Mueller-Hinton agar) of the same molecule?
A: The MIC was 4 µg/mL (≈ 16.4 µM).

Q: And the MIC ([10]; Klebsiella pneumoniae SSC-78-1, Mueller-Hinton agar)?
A: Its MIC is 128 µg/mL (≈ 524 µM).

Q: What about the MIC ([10]; Klebsiella pneumoniae Stfd-79-6, Mueller-Hinton agar) of the same molecule?
A: Its MIC is 128 µg/mL (≈ 524 µM).

Q: What about the MIC ([11]; Candida albicans LL #32, Mueller-Hinton agar) of the same molecule?
A: Its MIC is 64 µg/mL (≈ 262 µM).

Q: What about the MIC ([11]; Candida albicans LL #54, Mueller-Hinton agar) of the same molecule?
A: Its MIC is 128 µg/mL (≈ 524 µM).

Q: What about the MIC ([12]; 18 h, Escherichia coli #31, Mueller-Hinton agar) of the same molecule?
A: The MIC was 4 µg/mL (≈ 16.4 µM).

Q: What about the MIC ([12]; 18 h, Escherichia coli Stfd-79-20, Mueller-Hinton agar) of the same molecule?
A: The MIC was 8 µg/mL (≈ 32.8 µM).

Q: What about the MIC ([12]; ATCC25922, 18 h, Escherichia coli ATCC 25922, Mueller-Hinton agar) of the same molecule?
A: Its MIC is 8 µg/mL (≈ 32.8 µM).

Q: What about the MIC ([13]; ATCC25923, Staphylococcus aureus ATCC 25923) of the same molecule?
A: The MIC was 16 µg/mL (≈ 65.5 µM).

Q: And the “Minimal Inhibitory Concentration” value ([13]; Staphylococcus aureus FU-79-2)?
A: Its value is 16 µg/mL.

Q: And the MIC ([13]; Staphylococcus aureus SSC-79-18)?
A: The MIC was 16 µg/mL (≈ 65.5 µM).

Q: What about the MIC [14] of the same molecule?
A: The MIC was 4 µg/mL (≈ 16.4 µM).

Q: What about the MIC [15] of the same molecule?
A: Its MIC is 128 µg/mL (≈ 524 µM).

Q: And the “Minimal Inhibitory Concentration” value ([16]; Providencia stuarti K-81-29)?
A: Its value is 64 µg/mL.

Q: What about the MIC ([16]; Providencia stuarti SSC-80-78, read-out: Minimal Inhibitory Concentration) of the same molecule?
A: The MIC was 64 µg/mL (≈ 262 µM).

Q: And the MIC [17]?
A: Its MIC is 128 µg/mL (≈ 524 µM).

Q: What about the MIC ([18]; Enterococcus sp. OSU-75-1, read-out: Minimal Inhibitory Concentration) of the same molecule?
A: The MIC was 64 µg/mL (≈ 262 µM).

Q: What about the “Minimal Inhibitory Concentration” value ([18]; Enterococcus sp. SM-77-15) of the same molecule?
A: The value was 64 µg/mL.

Q: And the MIC [19]?
A: Its MIC is 64 µg/mL (≈ 262 µM).

Q: What about the MIC ([20]; Acinetobacter calcoaceticus K-77-1, Mueller-Hinton agar) of the same molecule?
A: Its MIC is 128 µg/mL (≈ 524 µM).

Q: And the MIC ([20]; Acinetobacter calcoaceticus Stfd-79-17, Mueller-Hinton agar)?
A: Its MIC is 512 µg/mL (≈ 2100 µM).

Q: And the MIC [21]?
A: The MIC was 16 µg/mL (≈ 65.5 µM).

Q: What about the T/C ([22]; Colon Carcinoma, concentration 2 mgc/ml, active if T/C ≤30%) of the same molecule?
A: Its T/C is 16.0%.

Q: What about the “Av. No. of Colonies/Culture” value ([22]; Colon Carcinoma, concentration 2 mgc/ml, colonies counted after 10-11 days, control 420) of the same molecule?
A: The value was 67.

Q: What about the “activity in human tumor clonogenic (stem cell) assay” value ([22]; colon (CX-1) carcinoma, at 2.0 mcg/ml and higher doses) of the same molecule?
A: Its value is “active”.
